{"source": "patent US4967772A", "about": "“Tobacco smoking article and treatment of tobacco smoke with at least one alcohol” (C.A. Blockers, Inc., priority 1987, dated 1990)", "key": {"[1]": {"system": "rats", "settings": "cited from earlier work"}, "[2]": {"system": "rodents", "settings": "cited from earlier work; for carcinogenicity: N-nitroso derivatives of tobacco alkaloids"}, "[3]": {"system": "F-344 rats", "settings": "NNN in drinking water; cited from earlier work"}, "[4]": {"system": "tissues of the body", "settings": "[14C] NNN, adult male C57BL/6J mice; cited from earlier work"}, "[5]": {"system": "F-344 rat esophagus", "settings": "in contrast to other tissues; cited from earlier work"}, "[6]": {"system": "malignant growth and tumor development", "settings": "cited from earlier work"}, "[7]": {"system": "epithelial membranes", "settings": "cited from earlier work"}, "[8]": {"system": "nitrosamine localization", "assay": "Inhibition of selective localization of nitrosamines (delocalization), general statement", "assay_type": "in vivo", "source_text": "The alcohols which are operable according to the invention include alcohols having two or more carbons. However, it is preferable to use alcohols having alkyl groups of at least three carbons or greater. The alkyl groups may have a straight-chain or branched chain structure. Moreover, the alkyl groups may have a cyclic or acyclic structure."}, "[9]": {"system": "bronchial epithelium", "assay": "Whole-body autoradiography of [14C] NNN after inhalation of cyclohexanol vapor", "assay_type": "in vivo, C57BL/6J mouse", "settings": "5 min inhalation", "protocol": "The mouse was kept in the closed beaker for about five minutes as the bottom of the beaker was maintained at 50° C. in a water bath. […] Handbook of Chemistry and Physics (1979) at D-203 to D-217, which is incorporated herein in its entirety.\nOne hour later, the mouse was anesthetized lightly by ether and frozen by immersion in dry ice/hexane. […] Control experiments were conducted for comparison purposes and radioactivity was detected in the respiratory epithelium in the controls.\nExample 2 was duplicated, except that the mouse was kept in the closed beaker for five minutes as the bottom of the beaker was maintained at 20° C. in a water bath. […] After injection as in Example 2, the mouse was processed in the same manner as in Example 2."}, "[10]": {"assay": "Whole-body autoradiography: localization of [14C] NNN radioactivity in bronchial epithelium after oral alcohol pretreatment", "assay_type": "in vivo, male C57BL/6J mice", "protocol": "(§1) One hour later, the mice were anesthetized lightly with ether and frozen by immersion in dry ice/hexane. Twenty u-thick whole-body sagittal sections of the frozen mice were taken onto Scotch tape and were then processed for whole-body autoradiography by known methods. See W. Waddell et al, Drug Fate and Metabolism: Methods and Techniques. E.R. Garrett and J.L. Hirtz, Eds. […] Photometric density in areas of the developed autoradiographs was measured with an ADG Instruments photometer and a photocell with an aperture of three mm lying on the easel of a photographic enlarger. The X-ray film was placed in the enlarger and raised to produce a magnification of thirty-five times on the easel.\n(§2) NNN. […] (Twenty minutes is the average time it takes for alcohols introduced by oral intubation in mice to reach the peak blood level.)\n(§3) The number within each bar thereof represents the dose in g/kg of the alcohol which was administered orally twenty minutes before the [^14 C] NNN was given intravenously. The mice were frozen one hour after receiving the [^14 C] NNN. The means for each mouse were from fifteen measurements on random areas of that site (five absorbancies on each of three autoradiographs) after setting blood in each on zero. The control value is the mean from six mice; the n-butanol at one g/kg is from two mice; and the other means are from one mouse."}, "[11]": {"system": "liver", "settings": "oral 20 min before i.v. [14C] NNN; ethanol 1 and 5 g/Kg, n- and t-butanol 0.2 and 1 g/Kg; 1 h", "protocol": "as §1, §2, §3"}, "[12]": {"system": "salivary duct epithelium", "settings": "oral 20 min before i.v. [14C] NNN; ethanol 1 and 5 g/Kg, n-butanol 0.2 and 1 g/Kg; 1 h", "protocol": "as §1, §2, §3"}, "[13]": {"system": "nitrosamine localization", "assay": "Whole-body autoradiography of [14C] NNN after intraperitoneal imidazole", "assay_type": "in vivo, male C57BL/6J mouse", "settings": "20 min before i.v. [14C] NNN, vs control mouse", "protocol": "An adult male C57BL/6J mouse was injected intraperitoneally with 0.02 ml/g body weight of a solution of imidazole in water. The imidazole solution concentration was such that 0.05 g of imidazole was delivered per kg of body weight. […] See Example 1.\nExample 4 was duplicated except that the adult mouse was injected intraperitoneally with 0.02 ml/g body weight of a solution of imidazole in water, wherein the solution concentration was such that 0.25 g of imidazole was delivered per kg of body weight."}, "[14]": {"system": "adult human", "settings": "per kg body weight; cited from earlier work"}}, "data": [{"compound": "CCCCC(CC)CO", "note": "(stereo not shown) [2-ethyl hexanol]", "values": [{"measurement": "Acute Oral LD50 rats", "setting": "[1]; rat, in vivo, po", "value": "3200 to 7100", "unit": "mg/kg"}]}, {"compound": "CN(CCCC(=O)c1cccnc1)N=O", "note": "[NNK, 4-N-methyl-N-nitrosamino)-1-(3-pyridyo-1-butano]", "values": [{"measurement": "carcinogenicity", "setting": "[2]", "value": "powerful environmental carcinogens"}]}, {"compound": "O=NN1CCCC1c1cccnc1", "note": "(stereo not shown) [NNN, N'-Nitrosonoronicotine]", "values": [{"measurement": "esophageal tumors", "setting": "[3]", "value": "esophageal tumors have been induced"}, {"measurement": "retention of radioactivity versus sites of tumor formation", "setting": "[4]", "value": "striking correlation of the retention of radioactivity with the previously reported sites of tumor formation"}, {"measurement": "hydroxylation at the a-carbon of NNN adjacent to the pyridine ring", "setting": "[5]", "value": "preferentially catalyzes hydroxylation at the a-carbon of NNN adjacent to the pyridine ring"}, {"measurement": "carcinogenicity", "setting": "[2]", "value": "powerful environmental carcinogens"}, {"measurement": "sites of tumor formation", "setting": "[2]; in vivo", "value": "typically induces tumor formation at five sites, namely the nasal cavity, salivary duct, esophagus, bronchial epithelium and the liver"}, {"measurement": "carcinogenesis in olfactory epithelium, lung, salivary glands", "setting": "[2]; rodents", "value": "known to induce carcinogenesis in the olfactory epithelium, lung, salivary glands"}]}, {"compound": "[Se]", "note": "[Selenium]", "values": [{"measurement": "tumor development", "setting": "[6]", "value": "inhibit tumor development"}]}, {"compound": "O=C1O[C@H]([C@@H](O)CO)C(O)=C1O", "note": "[Vitamin C]", "values": [{"measurement": "formation of nitrosamines on epithelial membranes", "setting": "[7]", "value": "prevent the formation of nitrosamines on epithelial membranes"}]}, {"compound": "S=C=NCc1ccccc1", "note": "[benzylisothiocyanate]", "values": [{"measurement": "delocalization of nitrosamines", "setting": "[8]", "value": "found to delocalize nitrosamines"}]}, {"compound": "OC1CCCCC1", "note": "[cyclohexanol]", "values": [{"measurement": "radioactivity in bronchial epithelium", "setting": "[9]; 20° C., 0.001% cyclohexanol in air", "value": "No radioactivity was detected in any part of the bronchial epithelium"}, {"measurement": "radioactivity in bronchial epithelium", "setting": "[9]; 50° C., 0.01% cyclohexanol in air", "value": "No radioactivity was detected in any part of the bronchial epithelium"}]}, {"compound": "C[S+](C)[O-]", "note": "[dimethylsulfoxide (DMSO), dimethylsulfoxide]", "values": [{"measurement": "delocalization of nitrosamines", "setting": "[8]", "value": "found to delocalize nitrosamines"}]}, {"compound": "CCO", "note": "[ethanol]", "values": [{"measurement": "localization of radioactivity in bronchial epithelium", "setting": "[10]; oral 20 min before i.v. [14C] NNN, ethanol 1 and 5 g/Kg, n-butanol 0.2 and 1 g/Kg, 1 h", "value": "reduced by pretreatment"}, {"measurement": "localization of radioactivity in periportal and central areas of the liver", "setting": "[11]", "value": "reduced by pretreatment"}, {"measurement": "localization of radioactivity in salivary duct epithelium", "setting": "[12]", "value": "reduced by pretreatment"}]}, {"compound": "c1c[nH]cn1", "note": "[imidazole]", "values": [{"measurement": "nitrosamine delocalization", "setting": "[13]; 0.05 g/kg imidazole i.p.", "value": "Significant nitrosamine delocalization"}, {"measurement": "delocalization of nitrosamine", "setting": "[13]; 0.25 g/kg imidazole i.p.", "value": "significant delocalization of nitrosamine"}, {"measurement": "delocalization of nitrosamines", "setting": "[8]", "value": "found to delocalize nitrosamines"}]}, {"compound": "CN1CCCC1c1cccnc1", "note": "(stereo not shown) [nicotine]", "values": [{"measurement": "estimated acutely fatal oral dose", "setting": "[14]", "value": 1, "unit": "mg/kg"}]}, {"compound": "c1cn[nH]c1", "note": "[pyrazole]", "values": [{"measurement": "delocalization of nitrosamines", "setting": "[8]", "value": "found to delocalize nitrosamines"}]}, {"compound": "CC1=C(/C=C/C(C)=C/C=C/C(C)=C/CO)C(C)(C)CCC1", "note": "[retinol, reference compound]", "values": [{"measurement": "inhibition of nitrosamine localization", "setting": "[8]", "value": "does not inhibit nitrosamine localization"}]}, {"compound": "[Cl-].[Na+]", "note": "[sodium chloride, reference compound]", "values": [{"measurement": "LD50", "setting": "[1]; acute oral, rats", "value": "about 3.75 g/Kg"}]}, {"compound": "CC(C)(C)O", "note": "[t-butanol]", "values": [{"measurement": "inhibition in bronchial epithelium (FIG. 1), ranking", "setting": "[10]; from inspection of FIG. 1, oral pretreatment", "value": "greatest inhibition"}, {"measurement": "localization of [14C] NNN in bronchial epithelium", "setting": "[10]; high dosage (t-butanol 1 g/Kg oral), 20 min before i.v. [14C] NNN", "value": "almost completely abolished"}]}, {"compound": "Vitamin A", "values": [{"measurement": "malignant growth", "setting": "[6]", "value": "suppress malignant growth"}]}, {"compound": "Vitamin E", "values": [{"measurement": "formation of nitrosamines on epithelial membranes", "setting": "[7]", "value": "prevent the formation of nitrosamines on epithelial membranes"}]}]}
